# Measured values from the supplement of paper PMC4862054.
# System: MDA-MB-453
# Test: normalised response (% of control), CellTox Green; higher = less cell death (100 = DMSO, 0 = benzethonium chloride kill control)
# Conditions: incubation time: 72 h
# Outline: (§1)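 Normalised signals at single concentrations make up the values. They come from breast cancer cell lines seeded (20 µl suspension) into 384-well plates with compound at 5 concentrations in 10-fold steps over a compound-specific 10,000-fold range, incubated 72 h, and read for CellTox Green fluorescence then CellTiter-Glo luminescence. Each plate was normalised to 0.1 % DMSO (100) and a positive kill control (0).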
row,Structure (SMILES),normalised response
1,CC1(C)NC(=O)N(c2ccc([N+](=O)[O-])c(C(F)(F)F)c2)C1=O [Nilutamide] (1000 nM),94%
2,CNCc1ccc(-c2[nH]c3cc(F)cc4c3c2CCNC4=O)cc1 [Rucaparib] (10000 nM),101%
3,CO[C@H]1/C=C\C=C(/C)C(=O)NC2=CC(=O)C(NCCN(C)C)=C(C[C@@H](C)C[C@H](OC)[C@H](O)[C@@H](C)/C=C(\C)[C@@H]1OC(N)=O)C2=O [Alvespimycin] (1000 nM),82.7%
4,Cc1ccc(C(=O)Nc2ccc(CN3CCN(C)CC3)c(C(F)(F)F)c2)cc1C#Cc1cnc2cccnn12 [Ponatinib] (1000 nM),103%
5,COc1cc2nccc(Oc3ccc(NC(=O)C4(C(=O)Nc5ccc(F)cc5)CC4)cc3)c2cc1OC [Cabozantinib] (1000 nM),101%

# System: HCC1599
# Test: as above
# Conditions: incubation time: 72 h
# Outline: as §1
row,Structure (SMILES),normalised response
1,CC1(C)NC(=O)N(c2ccc([N+](=O)[O-])c(C(F)(F)F)c2)C1=O [Nilutamide] (1000 nM),107%
2,CNCc1ccc(-c2[nH]c3cc(F)cc4c3c2CCNC4=O)cc1 [Rucaparib] (10000 nM),93.7%
3,CO[C@H]1/C=C\C=C(/C)C(=O)NC2=CC(=O)C(NCCN(C)C)=C(C[C@@H](C)C[C@H](OC)[C@H](O)[C@@H](C)/C=C(\C)[C@@H]1OC(N)=O)C2=O [Alvespimycin] (1000 nM),104%
4,Cc1ccc(C(=O)Nc2ccc(CN3CCN(C)CC3)c(C(F)(F)F)c2)cc1C#Cc1cnc2cccnn12 [Ponatinib] (1000 nM),103%
5,COc1cc2nccc(Oc3ccc(NC(=O)C4(C(=O)Nc5ccc(F)cc5)CC4)cc3)c2cc1OC [Cabozantinib] (1000 nM),94.5%

# System: HCC1143
# Test: as above
# Conditions: incubation time: 72 h
# Outline: as §1
row,Structure (SMILES),normalised response
1,CC1(C)NC(=O)N(c2ccc([N+](=O)[O-])c(C(F)(F)F)c2)C1=O [Nilutamide] (1000 nM),72.8%
2,CNCc1ccc(-c2[nH]c3cc(F)cc4c3c2CCNC4=O)cc1 [Rucaparib] (10000 nM),74.6%
3,CO[C@H]1/C=C\C=C(/C)C(=O)NC2=CC(=O)C(NCCN(C)C)=C(C[C@@H](C)C[C@H](OC)[C@H](O)[C@@H](C)/C=C(\C)[C@@H]1OC(N)=O)C2=O [Alvespimycin] (1000 nM),-15.9%
4,Cc1ccc(C(=O)Nc2ccc(CN3CCN(C)CC3)c(C(F)(F)F)c2)cc1C#Cc1cnc2cccnn12 [Ponatinib] (1000 nM),71.3%
5,COc1cc2nccc(Oc3ccc(NC(=O)C4(C(=O)Nc5ccc(F)cc5)CC4)cc3)c2cc1OC [Cabozantinib] (1000 nM),108%

# System: MDA-MB-231
# Test: as above
# Conditions: incubation time: 72 h
# Outline: as §1
row,Structure (SMILES),normalised response
1,CC1(C)NC(=O)N(c2ccc([N+](=O)[O-])c(C(F)(F)F)c2)C1=O [Nilutamide] (1000 nM),115%
2,CNCc1ccc(-c2[nH]c3cc(F)cc4c3c2CCNC4=O)cc1 [Rucaparib] (10000 nM),98.5%
3,CO[C@H]1/C=C\C=C(/C)C(=O)NC2=CC(=O)C(NCCN(C)C)=C(C[C@@H](C)C[C@H](OC)[C@H](O)[C@@H](C)/C=C(\C)[C@@H]1OC(N)=O)C2=O [Alvespimycin] (1000 nM),33%
4,Cc1ccc(C(=O)Nc2ccc(CN3CCN(C)CC3)c(C(F)(F)F)c2)cc1C#Cc1cnc2cccnn12 [Ponatinib] (1000 nM),-32.9%
5,COc1cc2nccc(Oc3ccc(NC(=O)C4(C(=O)Nc5ccc(F)cc5)CC4)cc3)c2cc1OC [Cabozantinib] (1000 nM),97.1%

# System: MDA-MB-468
# Test: as above
# Conditions: incubation time: 72 h
# Outline: as §1
row,Structure (SMILES),normalised response
1,CC1(C)NC(=O)N(c2ccc([N+](=O)[O-])c(C(F)(F)F)c2)C1=O [Nilutamide] (1000 nM),115%
2,CNCc1ccc(-c2[nH]c3cc(F)cc4c3c2CCNC4=O)cc1 [Rucaparib] (10000 nM),160%
3,CO[C@H]1/C=C\C=C(/C)C(=O)NC2=CC(=O)C(NCCN(C)C)=C(C[C@@H](C)C[C@H](OC)[C@H](O)[C@@H](C)/C=C(\C)[C@@H]1OC(N)=O)C2=O [Alvespimycin] (1000 nM),34.9%
4,Cc1ccc(C(=O)Nc2ccc(CN3CCN(C)CC3)c(C(F)(F)F)c2)cc1C#Cc1cnc2cccnn12 [Ponatinib] (1000 nM),164%
5,COc1cc2nccc(Oc3ccc(NC(=O)C4(C(=O)Nc5ccc(F)cc5)CC4)cc3)c2cc1OC [Cabozantinib] (1000 nM),158%

# System: BT-474
# Test: as above
# Conditions: incubation time: 72 h
# Outline: as §1
row,Structure (SMILES),normalised response
1,CC1(C)NC(=O)N(c2ccc([N+](=O)[O-])c(C(F)(F)F)c2)C1=O [Nilutamide] (1000 nM),102%
2,CNCc1ccc(-c2[nH]c3cc(F)cc4c3c2CCNC4=O)cc1 [Rucaparib] (10000 nM),96.9%
3,CO[C@H]1/C=C\C=C(/C)C(=O)NC2=CC(=O)C(NCCN(C)C)=C(C[C@@H](C)C[C@H](OC)[C@H](O)[C@@H](C)/C=C(\C)[C@@H]1OC(N)=O)C2=O [Alvespimycin] (1000 nM),61.3%
4,Cc1ccc(C(=O)Nc2ccc(CN3CCN(C)CC3)c(C(F)(F)F)c2)cc1C#Cc1cnc2cccnn12 [Ponatinib] (1000 nM),92.3%
5,COc1cc2nccc(Oc3ccc(NC(=O)C4(C(=O)Nc5ccc(F)cc5)CC4)cc3)c2cc1OC [Cabozantinib] (1000 nM),98.4%

# System: CAL-51
# Test: as above
# Conditions: incubation time: 72 h
# Outline: as §1
row,Structure (SMILES),normalised response
1,CC1(C)NC(=O)N(c2ccc([N+](=O)[O-])c(C(F)(F)F)c2)C1=O [Nilutamide] (1000 nM),103%
2,CNCc1ccc(-c2[nH]c3cc(F)cc4c3c2CCNC4=O)cc1 [Rucaparib] (10000 nM),94.4%
3,CO[C@H]1/C=C\C=C(/C)C(=O)NC2=CC(=O)C(NCCN(C)C)=C(C[C@@H](C)C[C@H](OC)[C@H](O)[C@@H](C)/C=C(\C)[C@@H]1OC(N)=O)C2=O [Alvespimycin] (1000 nM),69.6%
4,Cc1ccc(C(=O)Nc2ccc(CN3CCN(C)CC3)c(C(F)(F)F)c2)cc1C#Cc1cnc2cccnn12 [Ponatinib] (1000 nM),57.4%
5,COc1cc2nccc(Oc3ccc(NC(=O)C4(C(=O)Nc5ccc(F)cc5)CC4)cc3)c2cc1OC [Cabozantinib] (1000 nM),82.7%

# System: MFM-223
# Test: as above
# Conditions: incubation time: 72 h
# Outline: as §1
row,Structure (SMILES),normalised response
1,CC1(C)NC(=O)N(c2ccc([N+](=O)[O-])c(C(F)(F)F)c2)C1=O [Nilutamide] (1000 nM),95.9%
2,CNCc1ccc(-c2[nH]c3cc(F)cc4c3c2CCNC4=O)cc1 [Rucaparib] (10000 nM),97.1%
